Test results reported in ChEMBL document CHEMBL4765457, “Targeting dual tolerant regions of binding pocket: Discovery of novel morpholine-substituted diarylpyrimidines as potent HIV-1 NNRTIs with significantly improved water solubility” (Eur J Med Chem, 2020).
≈ marks a conversion by molar mass, not a printed value.

What was measured:
[1] = tested on: Human immunodeficiency virus 1; experiment: Antiviral activity against HIV1 3B infected in human MT4 cells assessed as virus-induced cytopathic effect incubated for 5 days by MTT assay; format: functional, organism-based; conditions: Human immunodeficiency virus 1, 3B, MT4, 120 h
[2] = tested on: Human immunodeficiency virus 1; experiment: Antiviral activity against HIV1 RES056 infected in human MT4 cells assessed as inhibition of virus-induced cytopathic effect incubated for 5 days by MTT assay; format: functional, organism-based; conditions: Human immunodeficiency virus 1, RES056, MT4, 120 h
[3] = Cytotoxicity against human MT4 cells assessed as reduction in cell viability incubated for 5 days by MTT assay; format: cell-based; conditions: time 5 day
[4] = Selectivity index, ratio of CC50 for human MT4 cells to EC50 for antiviral activity against HIV1 3B infected in human MT4 cells; format: toxicity, cell-based; conditions: read-out: Ratio CC50/EC50
[5] = Selectivity index, ratio of CC50 for human MT4 cells to EC50 for antiviral activity against HIV1 RES056 infected in human MT4 cells; format: toxicity, cell-based; conditions: read-out: Ratio CC50/EC50
[6] = tested on: Human immunodeficiency virus 1; experiment: Antiviral activity against HIV1 harboring RT L100I mutant infected in human MT4 cells assessed as inhibition of virus-induced cytopathic effect incubated for 5 days by MTT assay; format: functional, organism-based; conditions: Human immunodeficiency virus 1, MT4, 120 h
[7] = tested on: Human immunodeficiency virus 1; experiment: Antiviral activity against HIV1 harboring RT K103N mutant infected in human MT4 cells assessed as inhibition of virus-induced cytopathic effect incubated for 5 days by MTT assay; format: functional, organism-based; conditions: Human immunodeficiency virus 1, MT4, 120 h
[8] = tested on: Human immunodeficiency virus 1; experiment: Antiviral activity against HIV1 harboring RT Y181C mutant infected in human MT4 cells assessed as inhibition of virus-induced cytopathic effect incubated for 5 days by MTT assay; format: functional, organism-based; conditions: Human immunodeficiency virus 1, MT4, 120 h
[9] = tested on: Human immunodeficiency virus 1; experiment: Antiviral activity against HIV1 harboring RT Y188L mutant infected in human MT4 cells assessed as inhibition of virus-induced cytopathic effect incubated for 5 days by MTT assay; format: functional, organism-based; conditions: Human immunodeficiency virus 1, MT4, 120 h
[10] = tested on: Human immunodeficiency virus 1; experiment: Antiviral activity against HIV1 harboring RT E138K mutant infected in human MT4 cells assessed as inhibition of virus-induced cytopathic effect incubated for 5 days by MTT assay; format: functional, organism-based; conditions: Human immunodeficiency virus 1, MT4, 120 h
[11] = tested on: Human immunodeficiency virus 1; experiment: Antiviral activity against HIV1 harboring RT F227L/V106Amutant infected in human MT4 cells assessed as inhibition of virus-induced cytopathic effect incubated for 5 days by MTT assay; format: functional, organism-based; conditions: Human immunodeficiency virus 1, MT4, 120 h
[12] = Resistance index, ratio of EC50 for antiviral activity against HIV1 expressing RT L100I mutant infected in human MT4 cells to EC50 for antiviral activity against HIV1 3B infected in human MT4 cells; format: functional
[13] = Resistance index, ratio of EC50 for antiviral activity against HIV1 expressing RT K103N mutant infected in human MT4 cells to EC50 for antiviral activity against HIV1 3B infected in human MT4 cells; format: functional
[14] = Resistance index, ratio of EC50 for antiviral activity against HIV1 expressing RT Y181C mutant infected in human MT4 cells to EC50 for antiviral activity against HIV1 3B infected in human MT4 cells; format: functional
[15] = Resistance index, ratio of EC50 for antiviral activity against HIV1 expressing RT Y188L mutant infected in human MT4 cells to EC50 for antiviral activity against HIV1 3B infected in human MT4 cells; format: functional
[16] = Resistance index, ratio of EC50 for antiviral activity against HIV1 expressing RT E138K mutant infected in human MT4 cells to EC50 for antiviral activity against HIV1 3B infected in human MT4 cells; format: functional
[17] = Resistance index, ratio of EC50 for antiviral activity against HIV1 expressing RT F227L/V106A mutant infected in human MT4 cells to EC50 for antiviral activity against HIV1 3B infected in human MT4 cells; format: functional
[18] = Inhibition of HIV1 reverse transcriptase assessed as reduction in biotin-dUTP incorporation into template preincubated for 1 hr followed by template/primer and dNTP addition and measured after 1 hr by ELISA; design: species or system Human immunodeficiency virus 1
[19] = Solubility of compound in water at pH 7.4; format: physicochemical
[20] = Solubility of compound in water at pH 7; format: physicochemical
[21] = Solubility of compound in water at pH 2; format: physicochemical
[22] = tested on: Human immunodeficiency virus 1; experiment: Potency index, ratio of lamivudine EC50 to test compound EC50 for antiviral activity against HIV1 3B infected in human MT4 cells; format: functional
[23] = tested on: Human immunodeficiency virus 1; experiment: Potency index, ratio of zidovudine EC50 to test compound EC50 for antiviral activity against HIV1 3B infected in human MT4 cells; format: functional
[24] = tested on: Human immunodeficiency virus 1; experiment: Potency index, ratio of nevirapine EC50 to test compound EC50 for antiviral activity against HIV1 harboring K103N mutant infected in human MT4 cells; format: functional
[25] = tested on: Human immunodeficiency virus 1; experiment: Potency index, ratio of lamivudine EC50 to test compound EC50 for antiviral activity against HIV1 harboring K103N mutant infected in human MT4 cells; format: functional

SMILES	EC50 [1] [nM]	EC50 [2] [nM]	CC50 at 120 h [3] [nM]	selectivity ratio [4]	selectivity ratio [5]	EC50 [6] [nM]	EC50 [7] [nM]	EC50 [8] [nM]	EC50 [9] [nM]	EC50 [10] [nM]	EC50 [11] [nM]	Ratio EC50 [12]	Ratio EC50 [13]	Ratio EC50 [14]	Ratio EC50 [15]	Ratio EC50 [16]	Ratio EC50 [17]	IC50 [18] [nM]	solubility [19] [µg/mL]	solubility [20] [µg/mL]	further results
Cc1cc(C#N)cc(C)c1Oc1nc(NC2CCN(CCN3CCOCC3)CC2)nc2ccsc12	87	> 36800	36800	423	< 1	8700	1040	8350	9390	437	7140	99.9	11.9	95.8	107.9	5	81.9	2530	15.6 (≈ 31.7 µM)	24.4 (≈ 49.5 µM)	solubility [21]: 207 µg/mL (≈ 420 µM)
Cc1cc(C#N)cc(C)c1Oc1nc(Nc2ccc(C#N)cc2)nc(N)c1Br [ETRAVIRINE]	–	38	> 4590	> 1640	> 122	5	3	14	14	7	18	1.9	1	4.9	4.9	2.6	6.3	59	–	–	–
Cc1cc(C#N)cc(C)c1Oc1nc(NC2CCN(CCN3CCOCC3)CC2)nc2sccc12	65	> 37900	37900	579	< 1	14700	610	6900	45200	586	18700	224.5	9.3	105.5	690.6	9	285.5	2360	19.7 (≈ 40 µM)	29.3 (≈ 59.5 µM)	solubility [21]: 243 µg/mL (≈ 493 µM)
Cc1cc(C#N)cc(C)c1Oc1nc(NC2CCN(CC(=O)N3CCOCC3)CC2)nc2c1SCC2	58	> 38600	38600	663	< 1	6120	1280	5450	5210	1310	> 38600	105	21.9	93.5	89.4	22.6	>662.9	3370	29.1 (≈ 57.2 µM)	35.2 (≈ 69.2 µM)	Ratio EC50 [22]: <=87; Ratio EC50 [23]: 2.8; solubility [21]: 248 µg/mL (≈ 488 µM)
Cc1cc(C#N)cc(C)c1Oc1nc(NC2CCN(CCN3CCOCC3)CC2)nc2cc(F)ccc12	241	> 16900	16900	70	< 1	1240	522	1350	2400	963	2920	5.1	2.2	5.6	10	4	12.1	–	–	–	Ratio EC50 [24]: 10; Ratio EC50 [25]: 8
Cc1cc(C#N)cc(C)c1Oc1nc(NC2CCN(CC(=O)N3CCOCC3)CC2)nc2sccc12	82	> 36300	36300	442	< 1	3670	1620	3640	7180	334	13800	44.8	19.8	44.3	87.5	4.1	168	1490	27.6 (≈ 54.5 µM)	34.2 (≈ 67.5 µM)	solubility [21]: 228 µg/mL (≈ 450 µM)
